The results in this text go back to patent EP0497258B1, “Use of adenosine antagonists in the prevention and treatment of pancreatitis and ulcer” (FUJISAWA PHARMACEUTICAL CO., LTD., priority 1991, dated 1992).

Common to all, as to type: in vivo, Sprague-Dawley rats
Assay [1] concerns ischemia induced gastric ulcer. Nature of the assay: Effect on ischemia induced gastric ulcer (left gastric artery ligation). The method, then: Male Sprague-Dawley rats (9 or 10 rats for one group) weighing 230 to 270 g were fasted for 24 hours but allowed free access to water ad libitum.
Under ether anesthesia, the abdomen was incised and the left gastric artery was ligated. After closing the abdomen, animals were maintained an regular feed with water ad libitum. The test compound (1) (10 mg/kg/5 ml) for the test group or vehicle (0.1 % methyl cellulose, 5 ml/kg) for the control group was given orally twice a day (9:00 a.m. and 5:00 p.m.) from the first day after the operation for 3 consecutive days. On the fourth day after the operation, the test compound (for the test group) or vehicle (for the control group) was given at 9:00 a.m. and animals were killed at.5:00 p.m.. The stomach was examined for ulcers.
Ulcer index was expressed as lesion area (mean ± standard error).

Assay [2] deals with serum amylase increment induced by caerulein administration with water immersion restraint stress. Nature of the assay: Effect on serum amylase increment induced by caerulein administration with water immersion restraint stress. The settings on record: male rats, caerulein 50 µg/kg s.c. + water immersion restraint at 23°C for 7 hours; 1 mg/kg orally 30 minutes before caerulein; mean ± standard error; control group 22.5 ± 3.3. The method, then: Male Sprague-Dawley rats (6 rats for one group) weighing 210 to 240 g were fasted for 24 hours but allowed free access to water ad libitum. Immediately after caerulein administration (50 µg/kg/2 ml s.c.), rats were placed in restraint cages and immersed in water at 23°C for 7 hours. The animals were killed and blood sample was collected from femoral blood vessels. Serum amylase was measured using Neo-Amylase Test "DAIICHI" (trademark, prepared by DAIICHI KAGAKU YAKUHIN). The test compound (1) (1 mg/kg/5 ml) for the test group or vehicle (0.1 % methyl cellulose, 5 ml/kg) for the control group was given orally 30 minutes before caerulein administration.
Serum amylase concentration was expressed as mean ± standard error.

Assay [3] concerns CHA(N^6-cyclohexyladenosine)-induced pancreatitis. Put plainly: Effect on CHA-induced pancreatitis (serum amylase). The conditions noted are these: 10 mg/kg orally 30 minutes before CHA; for inhibition %: inhibition of CHA-induced serum amylase increase; for serum amylase (10^3 IU/ℓ): male rats, CHA 3.2 mg/kg orally, blood after 24 hours, Normal 4.1 ± 0.2, Control 28.3 ± 10.0. The method, then:
Male Sprague-Dawley rats, weighing 245-260 g, were deprived of food but allowed free access to water for 24 hours CHA was given orally at a dose of 3.2 mg/kg. After 24 hours, animals were killed and blood samples were collected. Subsequently, the blood serum was prepared and amylase concentration was determined. The test compounds (1) to (5) (10 mg/kg) or vehicle (to control group) was given orally 30 minutes before CHA administration. In Normal group, vehicle was given instead of CHA.

Assay [4] deals with CHA(N^6-cyclohexyladenosine)-induced gastric ulcer. Nature of the assay: Effect on CHA-induced gastric ulcer. The settings on record: 10 mg/kg orally 30 minutes before CHA; for inhibition %: inhibition of ulcer index vs Control; for ulcer index (mm^2): male rats, CHA 1 mg/kg subcutaneously, stomachs examined after 7 hours, Control 65.0 ± 18.4. The method, then: Male Sprague-Dawley rats, weighing 225-259 g, were deprived of food but allowed free access to water for 24 hours. CHA was given subcutaneously at a dose of 1 mg/kg. After 7 hours, animals were killed and stomachs were removed. Subsequently, the stomachs were inflated by injecting 12 ml of 2% formalin to fix the inner layer of gastric walls. Ten minutes later, they were incised along the greater curvature and examined for lesions. Test Compounds (1) to (5) (10 mg/kg) or vehicle (to control group) was given orally 30 minutes before CHA administration.

On to `O=C(C=Cc1c(-c2ccccc2)nn2ccccc12)N1CCCC[C@@H]1CCO` [Test Compound (1), (2R)-1-[3-(2-Phenylpyrazolo[1,5-a]pyridin-3-yl)acryloyl]-2-(2-hydroxyethyl)piperidine], for which the “inhibition %” value is reported as 45.8% in assay [1] (inhibition of ulcer index vs control group, 10 mg/kg orally twice a day); 69.4% in assay [3]; 99.4% in assay [4]. For the same molecule, the “ulcer index (mm^2)” value in assay [1] (male rats, left gastric artery ligated, 10 mg/kg orally twice a day from first day after operation, killed on fourth day, lesion area, mean ± standard error, control group 26.2 ± 6.0) was 14.2 ± 4.0 mm^2; in assay [4], 0.4 ± 0.4 mm^2. Besides, the “serum amylase (10^3 IU/L)” value in assay [2] is 13.8 ± 1.0 10^3 IU/L. Also, the “serum amylase (10^3 IU/ℓ)” value in assay [3] is given as 11.5 ± 5.8 10^3 IU/ℓ.
`O=C(O)C[C@H]1CCCCN1C(=O)C=Cc1c(-c2ccccc2)nn2ccccc12` [Test Compound (3), (2R)-1-[3-(2-Phenylpyrazolo[1,5-a]pyridin-3-yl)acryloyl]-2-(carboxymethyl)piperidine]: in assay [3], the inhibition % stood at 92.6% and the “serum amylase (10^3 IU/ℓ)” value was 5.9 ± 1.0 10^3 IU/ℓ. In addition, in assay [4], the inhibition % is 99.8% and the “ulcer index (mm^2)” value is recorded as 0.1 ± 0.1 mm^2.
Consider `O=C(O)CCCn1nc(-c2c(-c3ccccc3)nn3ccccc23)ccc1=O` [Test Compound (2), 3-[2-(3-Carboxypropyl)-3-oxo-2,3-dihydropyridazin-6 yl]-2-phenylpyrazolo[1,5-a]pyridine], for which, in assay [3], the inhibition % was 99.6% and the “serum amylase (10^3 IU/ℓ)” value is 4.2 ± 0.3 10^3 IU/ℓ. Also, in assay [4], the inhibition % came to 97.1% and the “ulcer index (mm^2)” value is given as 1.9 ± 1.9 mm^2.
